Toxic doses and inconclusive results are not listed. The calls were made as follows: active = survival T/C of 150% or more; inactive = T/C below 125% in these data.
System: CD2F1 mice, L1210 leukemia ip, survival T/C
Assay: NCI In Vivo Anticancer Drug Screen. Data for tumor model L1210 Leukemia (intraperitoneal) in CD2F1 (CDF1) mice
Conditions: higher = longer survival
Outline: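 Each value reflects a quotient of treated over vehicle control outcomes in mice with a transplanted tumor.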

[1] = endpoint: mean survival time, dose: 100.0 mg/kg/injection, schedule: Q01DX001 (ip), vehicle: saline with Tween-80
[2] = endpoint: mean survival time, dose: 200.0 mg/kg/injection, schedule: Q01DX001 (ip), vehicle: saline with Tween-80
[3] = endpoint: mean survival time, dose: 400.0 mg/kg/injection, schedule: Q01DX001 (ip), vehicle: saline with Tween-80
[4] = endpoint: mean survival time, dose: 200.0 mg/kg/injection, schedule: Q04DX003 (ip), vehicle: Klucel (hydroxypropylcellulose) (HPC)
[5] = endpoint: mean survival time, dose: 400.0 mg/kg/injection, schedule: Q04DX003 (ip), vehicle: Klucel (hydroxypropylcellulose) (HPC)
[6] = endpoint: mean survival time, dose: 100.0 mg/kg/injection, schedule: Q04DX003 (ip), vehicle: saline with Tween-80
[7] = endpoint: mean survival time, dose: 200.0 mg/kg/injection, schedule: Q04DX003 (ip), vehicle: saline with Tween-80
[8] = endpoint: mean survival time, dose: 400.0 mg/kg/injection, schedule: Q04DX003 (ip), vehicle: saline with Tween-80
[9] = endpoint: mean survival time, dose: 100.0 mg/kg/injection, schedule: Q04DX002 (ip), vehicle: saline with Tween-80
[10] = endpoint: mean survival time, dose: 200.0 mg/kg/injection, schedule: Q04DX002 (ip), vehicle: saline with Tween-80
[11] = endpoint: mean survival time, dose: 400.0 mg/kg/injection, schedule: Q04DX002 (ip), vehicle: saline with Tween-80
[12] = endpoint: mean survival time, dose: 100.0 mg/kg/injection, schedule: Q04DX003 (ip), vehicle: Klucel (hydroxypropylcellulose) (HPC)
[13] = endpoint: mean survival time, dose: 100.0 mg/kg/injection, schedule: Q01DX001 (ip), vehicle: Klucel (hydroxypropylcellulose) (HPC)
[14] = endpoint: mean survival time, dose: 200.0 mg/kg/injection, schedule: Q01DX001 (ip), vehicle: Klucel (hydroxypropylcellulose) (HPC)
[15] = endpoint: mean survival time, dose: 100.0 mg/kg/injection, schedule: Q01DX009 (ip), vehicle: saline with Tween-80
[16] = endpoint: mean survival time, dose: 200.0 mg/kg/injection, schedule: Q01DX009 (ip), vehicle: saline with Tween-80
[17] = endpoint: mean survival time, dose: 12.5 mg/kg/injection, schedule: Q01DX009 (ip), vehicle: saline with Tween-80
[18] = endpoint: mean survival time, dose: 25.0 mg/kg/injection, schedule: Q01DX009 (ip), vehicle: saline with Tween-80
[19] = endpoint: mean survival time, dose: 50.0 mg/kg/injection, schedule: Q01DX009 (ip), vehicle: saline with Tween-80
[20] = endpoint: mean survival time, dose: 100.0 mg/kg/injection, schedule: Q01DX009 (ip), vehicle: other
[21] = endpoint: mean survival time, dose: 200.0 mg/kg/injection, schedule: Q01DX009 (ip), vehicle: other
[22] = endpoint: mean survival time, dose: 400.0 mg/kg/injection, schedule: Q01DX009 (ip), vehicle: other

Measured: T/C

CC(=O)OC1COC(n2nnc3c(-c4ccccc4)c(C)nn32)C(OC(C)=O)C1OC(C)=O (stereo not given)
inactive: endpoint: median survival time, dose: 12.5 mg/kg/injection, schedule: Q01DX005 (ip), vehicle: Klucel (hydroxypropylcellulose) (HPC) 112 % of control | endpoint: median survival time, dose: 25.0 mg/kg/injection, schedule: Q01DX005 (ip), vehicle: Klucel (hydroxypropylcellulose) (HPC) 104 % of control | endpoint: median survival time, dose: 50.0 mg/kg/injection, schedule: Q01DX005 (ip), vehicle: Klucel (hydroxypropylcellulose) (HPC) 97 % of control | endpoint: median survival time, dose: 100.0 mg/kg/injection, schedule: Q01DX005 (ip), vehicle: Klucel (hydroxypropylcellulose) (HPC) 100 % of control | endpoint: median survival time, dose: 200.0 mg/kg/injection, schedule: Q01DX005 (ip), vehicle: Klucel (hydroxypropylcellulose) (HPC) 95 % of control

Cc1cccc(Br)[n+]1[O-]
inactive: endpoint: mean survival time, dose: 100.0 mg/kg/injection, schedule: Q04DX003 (ip), vehicle: saline 92 % of control | endpoint: mean survival time, dose: 200.0 mg/kg/injection, schedule: Q04DX003 (ip), vehicle: saline 101 % of control

O=C(COCC(=O)N/N=C/c1ccc(Cl)c(Cl)c1)N/N=C/c1ccc(Cl)c(Cl)c1
inactive: [1] 94 % of control | [2] 94 % of control | [3] 96 % of control

COC(=O)c1ccccc1NC1=NCCO1
inactive: [4] 97 % of control | [5] 86 % of control

Cc1ccc(S(=O)(=O)OC2C(O)OCC3OC(C)(C)OC32)cc1 (stereo not given)
inactive: [6] 98 % of control | [7] 102 % of control | [8] 93 % of control

COc1cc(CC(=O)NO)cc(OC)c1OC
inactive: [9] 88 % of control | [10] 88 % of control

CCCCCCCCCCCCSC(=S)S
inactive: [9] 87 % of control | [10] 91 % of control | [11] 91 % of control

O=C(Nc1cc(Cl)c(I)cc1Cl)C(F)(F)F
inactive: endpoint: mean survival time, dose: 100.0 mg/kg/injection, schedule: Q01DX001 (ip), vehicle: saline 102 % of control | endpoint: mean survival time, dose: 200.0 mg/kg/injection, schedule: Q01DX001 (ip), vehicle: saline 111 % of control | endpoint: mean survival time, dose: 400.0 mg/kg/injection, schedule: Q01DX001 (ip), vehicle: saline 90 % of control

Cc1cccc(C)c1N=C(c1ccccc1)N(O)c1ccccc1
inactive: endpoint: mean survival time, dose: 1.88 mg/kg/injection, schedule: Q01DX009 (ip), vehicle: saline with Tween-80 101 % of control | endpoint: mean survival time, dose: 1.88 mg/kg/injection, schedule: Q04DX003 (ip), vehicle: saline 93 % of control | endpoint: mean survival time, dose: 3.75 mg/kg/injection, schedule: Q01DX009 (ip), vehicle: saline with Tween-80 95 % of control | endpoint: mean survival time, dose: 3.75 mg/kg/injection, schedule: Q04DX003 (ip), vehicle: saline 96 % of control | endpoint: mean survival time, dose: 7.5 mg/kg/injection, schedule: Q01DX001 (ip), vehicle: saline 103 % of control | endpoint: mean survival time, dose: 7.5 mg/kg/injection, schedule: Q01DX009 (ip), vehicle: saline with Tween-80 98 % of control | endpoint: mean survival time, dose: 7.5 mg/kg/injection, schedule: Q04DX003 (ip), vehicle: saline 98 % of control

CC(NC(=O)C(CSCc1ccccc1)NC(=O)OCc1ccccc1)C(=O)OCc1ccccc1 (stereo not given)
inactive: [6] 96 % of control | [7] 98 % of control | [8] 93 % of control

CC(C)c1ccccc1NC1=NCCO1
inactive: [12] 103 % of control | [4] 90 % of control

COC(=O)C(C)C1CCC2C3=CC=C4CC(OC(C)=O)CCC4(C)C3=CCC21C (stereo not given)
inactive: [13] 98 % of control | [14] 92 % of control | endpoint: mean survival time, dose: 400.0 mg/kg/injection, schedule: Q01DX001 (ip), vehicle: Klucel (hydroxypropylcellulose) (HPC) 92 % of control

COC(=O)CCC(=O)Nc1ccccc1C(C)=O
inactive: [15] 101 % of control | [16] 104 % of control | endpoint: mean survival time, dose: 400.0 mg/kg/injection, schedule: Q01DX009 (ip), vehicle: saline with Tween-80 106 % of control

BrCC1OCCCO1
inactive: [17] 105 % of control | [18] 111 % of control | [19] 115 % of control

CN(C)S(=O)(=O)c1ccccc1C(=O)O
inactive: endpoint: mean survival time, dose: 100.0 mg/kg/injection, schedule: Q04DX003 (ip), vehicle: saline sonified 100 % of control | endpoint: mean survival time, dose: 200.0 mg/kg/injection, schedule: Q04DX003 (ip), vehicle: saline sonified 100 % of control | endpoint: mean survival time, dose: 400.0 mg/kg/injection, schedule: Q04DX003 (ip), vehicle: saline sonified 93 % of control

CC(=O)OCCCOC(C)=O
inactive: [1] 93 % of control | [2] 112 % of control | [3] 101 % of control

O=C1OC(Cl)(c2cccc3ccccc23)c2ccccc21 (stereo not given)
inactive: [12] 87 % of control | [4] 87 % of control | [5] 94 % of control

CNc1ccccc1CO
inactive: [20] 107 % of control | [21] 97 % of control | [22] 103 % of control

Nc1cccc(Oc2ccc([N+](=O)[O-])cc2)c1
inactive: [13] 97 % of control | [14] 97 % of control

O=C(Nc1cccc(C(F)(F)F)c1)c1cccc(Cl)c1
inactive: endpoint: mean survival time, dose: 100.0 mg/kg/injection, schedule: Q01DX009 (ip), vehicle: saline + alcohol 94 % of control | endpoint: mean survival time, dose: 100.0 mg/kg/injection, schedule: Q04DX003 (ip), vehicle: saline + alcohol 95 % of control | endpoint: mean survival time, dose: 200.0 mg/kg/injection, schedule: Q01DX009 (ip), vehicle: saline + alcohol 94 % of control | endpoint: mean survival time, dose: 200.0 mg/kg/injection, schedule: Q04DX003 (ip), vehicle: saline + alcohol 97 % of control | endpoint: mean survival time, dose: 400.0 mg/kg/injection, schedule: Q01DX009 (ip), vehicle: saline + alcohol 98 % of control | endpoint: mean survival time, dose: 400.0 mg/kg/injection, schedule: Q04DX003 (ip), vehicle: saline + alcohol 101 % of control

NC(=O)N/N=C1/CC2CC1C1C=CCC21 (stereo not given)
inactive: [9] 102 % of control | [10] 107 % of control | [11] 98 % of control

O=[N+]([O-])O.[Ga]
inactive: endpoint: mean survival time, dose: 50.0 mg/kg/injection, schedule: Q01DX Z (ip), vehicle: saline 119 % of control

Nc1ncnc2nc[nH]c12
inactive: endpoint: median survival time, dose: 70.0 mg/kg/injection, schedule: Q01DX009 (ip), vehicle: acid diluted with saline 98 % of control | endpoint: median survival time, dose: 70.0 mg/kg/injection, schedule: Q01DX009 (ip), vehicle: other 109 % of control | endpoint: median survival time, dose: 80.0 mg/kg/injection, schedule: Q01DX009 (ip), vehicle: acid diluted with saline 103 % of control | endpoint: median survival time, dose: 80.0 mg/kg/injection, schedule: Q01DX009 (ip), vehicle: other 112 % of control | endpoint: median survival time, dose: 90.0 mg/kg/injection, schedule: Q01DX009 (ip), vehicle: acid diluted with saline 101 % of control | endpoint: median survival time, dose: 90.0 mg/kg/injection, schedule: Q01DX009 (ip), vehicle: other 106 % of control

CCCCCCCCCCCCCCCCOc1ccc(S(=O)(=O)NC(C)(C)C)cc1N
inactive: [6] 96 % of control | [7] 93 % of control | [8] 95 % of control

CCCCCCCCCCCC(O)CCCCC (stereo not given)
inactive: [20] 95 % of control | endpoint: mean survival time, dose: 100.0 mg/kg/injection, schedule: Q04DX003 (ip), vehicle: other 91 % of control | [21] 91 % of control | endpoint: mean survival time, dose: 200.0 mg/kg/injection, schedule: Q04DX003 (ip), vehicle: other 103 % of control | [22] 98 % of control | endpoint: mean survival time, dose: 400.0 mg/kg/injection, schedule: Q04DX003 (ip), vehicle: other 96 % of control

CC/C=C/CCOC(=N)C(Cl)(Cl)Cl
inactive: [19] 92 % of control | [15] 92 % of control | [16] 101 % of control

Nc1cccc(S(=O)(=O)NNc2cc(Cl)ccc2Cl)c1
inactive: [6] 102 % of control | [7] 96 % of control | [8] 95 % of control

COC(=O)COS(=O)(=O)c1ccc(C)cc1
inactive: [1] 95 % of control | [2] 96 % of control | [3] 100 % of control

CC1(C)C/C(=C\c2ccccc2[N+](=O)[O-])C(=O)c2ccccc21
inactive: endpoint: mean survival time, dose: 100.0 mg/kg/injection, schedule: Q04DX003 (ip), vehicle: acetone 92 % of control | endpoint: mean survival time, dose: 200.0 mg/kg/injection, schedule: Q04DX003 (ip), vehicle: acetone 90 % of control | endpoint: mean survival time, dose: 400.0 mg/kg/injection, schedule: Q04DX003 (ip), vehicle: acetone 93 % of control

CC(C)(CN=Cc1ccccc1[O-])N=Cc1ccccc1[O-].[O]=[V]
inactive: [17] 89 % of control | [18] 96 % of control | [19] 91 % of control | [6] 100 % of control | [7] 88 % of control
